# Results taken from PubChem BioAssay (NCI).
#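 Following 48 hours of exposure in 96-well plates, responses at five concentrations were used to interpolate endpoints linearly. TGI: total growth inhibition.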
# How the values were obtained:
# Assay in all cases: NCI tumour cell line growth inhibition, 48 h
# NCI-H23 lung = tested on: NCI-H23 lung
# BT-549 breast = tested on: BT-549 breast
# SR leukemia = tested on: SR leukemia
# SNB-75 CNS = tested on: SNB-75 CNS
# CCRF-CEM leukemia = tested on: CCRF-CEM leukemia
# DU-145 prostate = tested on: DU-145 prostate
# OVCAR-3 ovarian = tested on: OVCAR-3 ovarian
# SF-268 CNS = tested on: SF-268 CNS
# K-562 leukemia = tested on: K-562 leukemia
# MDA-N = tested on: MDA-N
# SF-539 CNS = tested on: SF-539 CNS
# T-47D breast = tested on: T-47D breast
# MDA-MB-435 = tested on: MDA-MB-435
# SW-620 colon = tested on: SW-620 colon
# HS 578T breast = tested on: HS 578T breast
# HT29 colon = tested on: HT29 colon
# OVCAR-5 ovarian = tested on: OVCAR-5 ovarian
# A549 NSCLC = tested on: A549 NSCLC
# HCT-15 colon = tested on: HCT-15 colon
# M14 melanoma = tested on: M14 melanoma
# EKVX NSCLC = tested on: EKVX NSCLC
# MALME-3M melanoma = tested on: MALME-3M melanoma
# UACC-62 melanoma = tested on: UACC-62 melanoma
# HOP-92 NSCLC = tested on: HOP-92 NSCLC
# HCT-116 colon = tested on: HCT-116 colon
# SK-MEL-5 melanoma = tested on: SK-MEL-5 melanoma
# RXF 393 renal = tested on: RXF 393 renal
# NCI-H522 lung = tested on: NCI-H522 lung
# HL-60(TB) leukemia = tested on: HL-60(TB) leukemia
# NCI-H460 lung = tested on: NCI-H460 lung
# 786-0 renal = tested on: 786-0 renal
# NCI-H226 lung = tested on: NCI-H226 lung
# UACC-257 melanoma = tested on: UACC-257 melanoma
# HOP-62 NSCLC = tested on: HOP-62 NSCLC
# CAKI-1 renal = tested on: CAKI-1 renal
# ACHN renal = tested on: ACHN renal
# IGROV1 ovarian = tested on: IGROV1 ovarian
# LOX IMVI melanoma = tested on: LOX IMVI melanoma
# SNB-19 CNS = tested on: SNB-19 CNS
# OVCAR-4 ovarian = tested on: OVCAR-4 ovarian
# SF-295 CNS = tested on: SF-295 CNS
# SK-OV-3 ovarian = tested on: SK-OV-3 ovarian
# MOLT-4 leukemia = tested on: MOLT-4 leukemia
# A498 renal = tested on: A498 renal
# OVCAR-8 ovarian = tested on: OVCAR-8 ovarian
# KM12 colon = tested on: KM12 colon
# MCF7 breast = tested on: MCF7 breast
# COLO 205 colon = tested on: COLO 205 colon
# SK-MEL-28 melanoma = tested on: SK-MEL-28 melanoma
# SN12C renal = tested on: SN12C renal
# NCI/ADR-RES ovarian = tested on: NCI/ADR-RES ovarian
# HCC-2998 colon = tested on: HCC-2998 colon
# UO-31 renal = tested on: UO-31 renal
# U251 CNS = tested on: U251 CNS
# SK-MEL-2 melanoma = tested on: SK-MEL-2 melanoma
# MDA-MB-231 breast = tested on: MDA-MB-231 breast
# TK-10 renal = tested on: TK-10 renal
# PC-3 prostate = tested on: PC-3 prostate
smiles,measurement,setting,value
COc1cc(/C=C2\N=C(c3ccccc3)N(c3cc4cc(Sc5ccccc5)ccc4[nH]3)C2=O)cc(OC)c1OC,TGI,NCI-H23 lung,> 75 µM
same,TGI,BT-549 breast,31.6 µM
same,TGI,SR leukemia,12.3 µM
same,TGI,SNB-75 CNS,56.2 µM
same,TGI,CCRF-CEM leukemia,51.7 µM
same,TGI,DU-145 prostate,37.9 µM
same,TGI,OVCAR-3 ovarian,60.1 µM
same,TGI,SF-268 CNS,18.2 µM
same,TGI,K-562 leukemia,17.9 µM
same,TGI,MDA-N,15.9 µM
same,TGI,SF-539 CNS,24.6 µM
same,TGI,T-47D breast,34.2 µM
same,TGI,MDA-MB-435,31 µM
same,TGI,SW-620 colon,68 µM
same,TGI,HS 578T breast,> 75 µM
same,TGI,HT29 colon,44.8 µM
same,TGI,OVCAR-5 ovarian,> 75 µM
same,TGI,A549 NSCLC,> 75 µM
same,TGI,HCT-15 colon,50.2 µM
same,TGI,M14 melanoma,22.8 µM
same,TGI,EKVX NSCLC,67.5 µM
same,TGI,MALME-3M melanoma,11.1 µM
same,TGI,UACC-62 melanoma,24.5 µM
same,TGI,HOP-92 NSCLC,29.8 µM
same,TGI,HCT-116 colon,23.9 µM
same,TGI,SK-MEL-5 melanoma,20.4 µM
same,TGI,RXF 393 renal,26.8 µM
same,TGI,NCI-H522 lung,12.9 µM
same,TGI,HL-60(TB) leukemia,31.9 µM
same,TGI,NCI-H460 lung,35.2 µM
same,TGI,786-0 renal,26 µM
same,TGI,NCI-H226 lung,28.9 µM
same,TGI,UACC-257 melanoma,40.3 µM
same,TGI,HOP-62 NSCLC,41.2 µM
same,TGI,CAKI-1 renal,> 75 µM
same,TGI,ACHN renal,> 75 µM
same,TGI,IGROV1 ovarian,> 75 µM
same,TGI,LOX IMVI melanoma,22.2 µM
same,TGI,SNB-19 CNS,> 75 µM
same,TGI,OVCAR-4 ovarian,> 75 µM
same,TGI,SF-295 CNS,73.2 µM
same,TGI,SK-OV-3 ovarian,> 75 µM
same,TGI,MOLT-4 leukemia,26.9 µM
same,TGI,A498 renal,42.9 µM
same,TGI,OVCAR-8 ovarian,41.5 µM
same,TGI,KM12 colon,56.8 µM
same,TGI,MCF7 breast,25.1 µM
same,TGI,COLO 205 colon,21.3 µM
same,TGI,SK-MEL-28 melanoma,35.8 µM
same,TGI,SN12C renal,52.6 µM
same,TGI,NCI/ADR-RES ovarian,59.1 µM
same,TGI,HCC-2998 colon,22.9 µM
same,TGI,UO-31 renal,48.9 µM
CC(C)=C1C(=O)c2c(Cl)sc(Cl)c2C1=O,TGI,NCI-H23 lung,36.6 µM
same,TGI,BT-549 breast,42.9 µM
same,TGI,U251 CNS,46.3 µM
same,TGI,SK-MEL-2 melanoma,50.6 µM
same,TGI,SR leukemia,> 100 µM
same,TGI,SNB-75 CNS,59.9 µM
same,TGI,CCRF-CEM leukemia,> 100 µM
same,TGI,DU-145 prostate,62.1 µM
same,TGI,OVCAR-3 ovarian,75.1 µM
same,TGI,SF-268 CNS,79.5 µM
same,TGI,K-562 leukemia,> 100 µM
same,TGI,MDA-N,64 µM
same,TGI,SF-539 CNS,50.5 µM
same,TGI,T-47D breast,97.6 µM
same,TGI,MDA-MB-435,39 µM
same,TGI,SW-620 colon,70.5 µM
same,TGI,HS 578T breast,80.2 µM
same,TGI,HT29 colon,67.8 µM
same,TGI,OVCAR-5 ovarian,> 100 µM
same,TGI,A549 NSCLC,81.8 µM
same,TGI,HCT-15 colon,43.3 µM
same,TGI,M14 melanoma,37.9 µM
same,TGI,EKVX NSCLC,81.1 µM
same,TGI,MALME-3M melanoma,44.5 µM
same,TGI,UACC-62 melanoma,38.3 µM
same,TGI,HOP-92 NSCLC,45.5 µM
same,TGI,HCT-116 colon,33 µM
same,TGI,MDA-MB-231 breast,57.4 µM
same,TGI,SK-MEL-5 melanoma,> 100 µM
same,TGI,NCI-H522 lung,32.6 µM
same,TGI,HL-60(TB) leukemia,90.7 µM
same,TGI,NCI-H460 lung,> 100 µM
same,TGI,786-0 renal,74.9 µM
same,TGI,NCI-H226 lung,> 100 µM
same,TGI,UACC-257 melanoma,43 µM
same,TGI,HOP-62 NSCLC,> 100 µM
same,TGI,TK-10 renal,56.7 µM
same,TGI,CAKI-1 renal,32.7 µM
same,TGI,ACHN renal,40.8 µM
same,TGI,IGROV1 ovarian,46 µM
same,TGI,LOX IMVI melanoma,34.2 µM
same,TGI,OVCAR-4 ovarian,34.5 µM
same,TGI,SF-295 CNS,> 100 µM
same,TGI,SK-OV-3 ovarian,> 100 µM
same,TGI,MOLT-4 leukemia,94.7 µM
same,TGI,A498 renal,> 100 µM
same,TGI,OVCAR-8 ovarian,38.3 µM
same,TGI,KM12 colon,33.8 µM
same,TGI,MCF7 breast,> 100 µM
same,TGI,COLO 205 colon,38.2 µM
same,TGI,SK-MEL-28 melanoma,58.3 µM
same,TGI,SN12C renal,48 µM
same,TGI,NCI/ADR-RES ovarian,54.5 µM
same,TGI,UO-31 renal,60.4 µM
CC(=O)c1c(SCCN2CCCCCC2)n(-c2ccccc2)c(=S)n(-c2ccccc2)c1=O,TGI,NCI-H23 lung,38.2 µM
same,TGI,BT-549 breast,32.7 µM
same,TGI,U251 CNS,32.5 µM
same,TGI,SK-MEL-2 melanoma,43.2 µM
same,TGI,SR leukemia,8.58 µM
same,TGI,SNB-75 CNS,32.8 µM
same,TGI,CCRF-CEM leukemia,1.24 µM
same,TGI,DU-145 prostate,5.18 µM
same,TGI,OVCAR-3 ovarian,12 µM
same,TGI,SF-268 CNS,26.3 µM
same,TGI,K-562 leukemia,10.9 µM
same,TGI,MDA-N,20.3 µM
same,TGI,SF-539 CNS,13.1 µM
same,TGI,T-47D breast,7.36 µM
same,TGI,MDA-MB-435,25.5 µM
same,TGI,PC-3 prostate,14.2 µM
same,TGI,SW-620 colon,4.96 µM
same,TGI,HS 578T breast,64.1 µM
same,TGI,HT29 colon,20.7 µM
same,TGI,OVCAR-5 ovarian,> 69 µM
same,TGI,A549 NSCLC,15.2 µM
same,TGI,HCT-15 colon,33.7 µM
same,TGI,M14 melanoma,4.9 µM
same,TGI,EKVX NSCLC,40.4 µM
same,TGI,MALME-3M melanoma,3.51 µM
same,TGI,UACC-62 melanoma,21 µM
same,TGI,HOP-92 NSCLC,20.1 µM
same,TGI,HCT-116 colon,18.5 µM
same,TGI,MDA-MB-231 breast,28.1 µM
same,TGI,SK-MEL-5 melanoma,22.2 µM
same,TGI,RXF 393 renal,3.41 µM
same,TGI,NCI-H522 lung,2.95 µM
same,TGI,NCI-H460 lung,> 54.4 µM
same,TGI,786-0 renal,3.36 µM
same,TGI,NCI-H226 lung,61.3 µM
same,TGI,UACC-257 melanoma,9.62 µM
same,TGI,HOP-62 NSCLC,> 56.4 µM
same,TGI,TK-10 renal,4.45 µM
same,TGI,CAKI-1 renal,8.26 µM
same,TGI,ACHN renal,3.31 µM
same,TGI,IGROV1 ovarian,22.7 µM
same,TGI,LOX IMVI melanoma,12.5 µM
same,TGI,SNB-19 CNS,> 100 µM
same,TGI,OVCAR-4 ovarian,79.3 µM
same,TGI,SF-295 CNS,> 100 µM
same,TGI,SK-OV-3 ovarian,> 100 µM
same,TGI,A498 renal,28.7 µM
same,TGI,OVCAR-8 ovarian,24.4 µM
same,TGI,KM12 colon,> 54.1 µM
same,TGI,COLO 205 colon,3.67 µM
same,TGI,SK-MEL-28 melanoma,23.4 µM
same,TGI,SN12C renal,19.5 µM
same,TGI,NCI/ADR-RES ovarian,> 100 µM
same,TGI,HCC-2998 colon,14.6 µM
